Laboratory results reported in US7371777B2, “Cyclic compound and PPAR agonist” (Eisai Co., Ltd., priority 2001, dated 2008).

Legend:
Assay in all cases: Determination of transcriptional activity (GAL4-PPAR LBD chimera, PLAP reporter, CV-1 cells)
Format in all cases: cell-based
[1] = target: T1, PPARβ (Homo sapiens, UniProt Q03181); details: GAL4-human NUC-1 LBD (138-440) chimera, PLAP activity 24 hours after addition of compound
T1 construct: 138-440 (NUC-1); expressed in transfected cells; host or cells: CV-1 (ATCC CCL-70)
T1 sequence (Q03181 138-440): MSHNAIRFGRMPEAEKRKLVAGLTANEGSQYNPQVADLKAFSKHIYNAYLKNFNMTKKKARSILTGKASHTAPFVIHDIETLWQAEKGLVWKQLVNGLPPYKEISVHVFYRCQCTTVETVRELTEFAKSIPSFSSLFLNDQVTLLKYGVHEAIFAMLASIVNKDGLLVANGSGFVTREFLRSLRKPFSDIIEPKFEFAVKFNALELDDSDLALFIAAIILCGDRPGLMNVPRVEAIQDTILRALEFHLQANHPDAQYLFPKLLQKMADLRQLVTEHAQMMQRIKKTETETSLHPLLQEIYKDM
Source text: (§1) Determination of Transcriptional Activity
(§2) (1) Test Method: A GAL4-PPAR LBD chimera expression vector was constructed by ligating human PPAR167-468 (PPARa), 138-440 (NUC-1) and 174-475 (PPARg) amino acid regions (LBD: Ligand Binding Domain) to a yeast transcriptional factor GAL4 1-147 amino acid region. As the reporter gene, PLAP (Placental Alkaline Phosphatase) was used, and this was ligated downstream of a TK promoter containing a 5-copy GAL4 DNA binding element to construct a vector. As host cells, CV-1 (ATCC CCL-70) were used. That is, CV-1 cells were spread at a density of 5×10^5 cells on a 35-mm dish and cultured in 10% FCS/DMEM for 24 hours, and using FuGENE 6 transfection reagent, the cells were co-transfected with the GAL4-PPAR LBD expression vector and GAL4 DBD-TK-PLAP expression vector. Twentyfour hours after this transfection, the cells were spread again on a 96-well plate at a density of 1×10^4/well and further cultured for 24 hours. After 24 hours, the medium was exchanged with DMEM containing 10% FCS, which was previously treated at 65° C. for inactivating intrinsic alkaline phosphatase, and a test compound was added at an arbitrary concentration. The transcriptional activity was determined in terms of PLAP activity secreted 24 hours after addition of the compound, to calculate EC50. The PLAP activity was determined after adding […] and incubating the mixture at room temperature for 1 hour.

[2] = target: T2, PPARγ (Homo sapiens, UniProt P37231); details: GAL4-human PPARγ LBD (174-475) chimera, PLAP activity 24 hours after addition of compound
T2 construct: 174-475 (PPARg); expressed in transfected cells; host or cells: CV-1 (ATCC CCL-70)
T2 sequence (P37231 204-505): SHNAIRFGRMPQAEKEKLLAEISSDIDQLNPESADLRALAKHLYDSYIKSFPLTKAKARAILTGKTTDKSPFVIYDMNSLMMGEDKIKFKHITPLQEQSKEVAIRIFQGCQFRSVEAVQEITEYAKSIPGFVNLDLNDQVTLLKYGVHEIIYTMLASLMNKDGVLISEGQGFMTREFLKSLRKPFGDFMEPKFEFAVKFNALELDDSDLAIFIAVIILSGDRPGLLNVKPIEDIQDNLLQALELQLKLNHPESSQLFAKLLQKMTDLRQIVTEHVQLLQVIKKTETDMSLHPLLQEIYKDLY
Source text: as §1, §2

[3] = target: T3, PPARα (Homo sapiens, UniProt Q07869); details: GAL4-human PPARα LBD (167-468) chimera, PLAP activity 24 hours after addition of compound
T3 construct: human PPAR167-468 (PPARa); expressed in transfected cells; host or cells: CV-1 (ATCC CCL-70)
T3 sequence (Q07869 167-468): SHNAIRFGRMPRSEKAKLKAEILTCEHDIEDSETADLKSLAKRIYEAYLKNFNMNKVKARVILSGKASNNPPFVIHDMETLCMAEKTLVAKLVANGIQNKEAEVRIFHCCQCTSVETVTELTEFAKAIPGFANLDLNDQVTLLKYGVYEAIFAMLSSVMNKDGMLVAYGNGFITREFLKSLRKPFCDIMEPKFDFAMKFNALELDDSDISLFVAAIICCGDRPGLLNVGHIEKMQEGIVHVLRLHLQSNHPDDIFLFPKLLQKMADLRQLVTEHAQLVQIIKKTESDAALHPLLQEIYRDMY
Source text: as §1, §2

| SMILES | EC50 [1] [µM] | EC50 [2] [µM] | EC50 [3] [µM] |
| --- | --- | --- | --- |
| CCOc1ccc(C(=O)NCc2cc(CC3(C(=O)O)CCCO3)ccc2OCC)c(Cl)c1 (stereo not drawn) [Ex. 72, 2-(3-{[(2-Chloro-4-ethoxybenzoyl)amino]methyl}-4-ethoxybenzyl)tetrahydro-2-furancarboxylic acid] | 0.234 | 0.04 | 0.092 |
| CCCOc1ccc(C(=O)NCc2cc(CC3(C(=O)O)CCCO3)ccc2OCC)c(Cl)c1 (stereo not drawn) [Ex. 73, 2-(3-{[(2-Chloro-4-propoxybenzoyl)amino]methyl}-4-ethoxybenzyl)tetrahydro-2-furancarboxylic acid] | 0.038 | 0.005 | 0.013 |

The remaining compounds from weak to strong by EC50 [1], led by results:

| EC50 [1] [µM] | EC50 [2] [µM] | EC50 [3] [µM] | SMILES |
| --- | --- | --- | --- |
| 1.32 | 0.04 | 0.015 | COc1ccc(CC2(C(=O)O)CCCO2)cc1CNC(=O)c1ccc(OC2CCCC2)cc1Cl (stereo not drawn) [Ex. 5, 2-(3-{[(2-Chloro-4-cyclopentyloxybenzoyl)amino]methyl}-4-methoxybenzyl)tetrahydro-2-furancarboxylic acid] |
| 1.21 | 0.078 | 0.011 | COc1ccc(CC2(C(=O)O)CCCO2)cc1CNC(=O)c1ccc(C2CCCCC2)cc1Cl (stereo not drawn) [Ex. 6, 2-(3-{[(2-Chloro-4-cyclohexylbenzoyl)amino]methyl}-4-methoxybenzyl)tetrahydro-2-furancarboxylic acid] |
| 0.771 | 0.037 | 0.054 | CCCOc1ccc(C(=O)NCc2cc(CC3(C(=O)O)C=CCO3)ccc2OC)c(Cl)c1 (stereo not drawn) [Ex. 49, 2-(3-{[(2-Chloro-4-propoxybenzoyl)amino]methyl}-4-methoxybenzyl)-2,5-dihydro-2-furancarboxylic acid] |
| 0.533 | 0.056 | 0.028 | CCCOc1ccc(C(=O)NCc2cc(CC3(C(=O)O)CCCO3)ccc2OC)c(Cl)c1 (stereo not drawn) [Ex. 1, 2-(3-{[(2-Chloro-4-propoxybenzoyl)amino]methyl}-4-methoxybenzyl)tetrahydro-2-furancarboxylic acid] |
